Common to all, as to assay type: cell-based
The subject of experiment [1] is IL-6. Put plainly: Whole bovine blood assay, LPS-induced IL-6. The note with it: fresh whole bovine blood, LPS stimulant, top drug concentration 250 μM.
The test system of experiment [2] is TNF-α. Put plainly: Whole bovine blood assay, LPS-induced TNF-α. The note with it: fresh whole bovine blood, LPS stimulant, top drug concentration 250 μM. An outline of the steps: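 Fresh heparinized bovine whole blood was preincubated with compound 4 h at 37 °C, then stimulated with LPS (final 1 μg/mL) for 18 h at 37 °C. Plasma TNF-α was quantified by MSD U-Plex chemiluminescent immunoassay, normalized to total protein (BCA), and IC50 taken for LPS-induced TNF-α inhibition.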

The subject of experiment [3] is BRD pathogens, M. haemolytica and P. multocida. Put plainly: MIC screening panel, BRD pathogens (CLSI broth micro-dilution). The text has this:
Primary screening of the compounds of the invention included the evaluation of antibacterial activity of analogs through determination of microbial inhibition concentration (MIC) as per CLSI guidelines. The screening panel included the relevant BRD pathogens: 1) M. haemolytica (e.g., 12726, 46571 and 49023, all AHDRCC; and 33396 (ATCC)); and 2) P. multocida (e.g., 34135 and 46572 (both AHDRCC) and 43137 (ATCC)). In some instances, H. somni (A700025K) pathogens were also included in the screening panel. The AHDRCC strains originated from the Zoetis BRD/SRD surveillance program and refer to the Animal Health Development and Research Culture Collection. In addition, the screen assessed S. aureus (29213 ATCC) as a representative Gram-positive isolate, E.faecalis (19433 ATCC) as a commensal gram-positive gastrointestinal bacterium and E. coli (100, 3110 and 25922 (ATCC)) for the evaluation of efflux potential. The screening panel BRD pathogens were assessed in determining antibacterial activity of the Formula (1) compounds.
All relevant BRD pathogens were initially screened at a top concentration of 64 μg/mL of a Formula (1) compound in an eleven-point dilution series. […] If an Example was purified further, the MICs moved […] essentially two dilutions across all strains tested in the screening panel.
In-Vitro MIC Model Compounds were analyzed for antibacterial activity against a panel of animal health specific gram-positive and gram-negative clinical strains by diluting compounds in DMSO to an appropriate stock concentration to determine the Minimal Inhibitory Concentration (MIC) via a semi-automated broth micro-dilution method (CLSI reference method) with QC strains and anti-microbial agent(s). Specifically, bacteria were grown overnight on TSA w/5% sheep blood agar plates and diluted in saline buffer to a McFarland Standard 0.5, then further diluted in cation-ion adjusted Mueller Hinton Broth to a final concentration of approximately 5×10^5 CFU/mL. 100 μL of inoculated media was added to 96-well plate(s) with 3 μL of serially diluted compound in each row. Depending on strain (see CLSI reference method), bacteria were incubated 18-22 hours at 35-37° C. in ambient air, with 5% CO2 or anaerobically (up to 48 hours).

[4] abbreviates: Table B, at least one BRD pathogenic strain, top concentration 64 μg/mL, read-out: MIC flag (*) for BRD pathogenic strains.
[5] abbreviates: Table C, at least one BRD pathogenic strain, top concentration 64 μg/mL.
Setting [6] is: Table B, at least one BRD pathogenic strain, top concentration 64 μg/mL.

Like-named read-outs stand apart in the source and are kept apart here. Marks after values point to notes of the source that are not given here.

One may read the IC50 as the concentration that inhibits the measured activity by half.

With `CC[C@H]1OC(=O)[C@H](C)[C@@H](O[C@H]2C[C@@](C)(OC)[C@](O)(CNC3CC3)[C@H](C)O2)[C@H](C)[C@@H](O[C@@H]2O[C@H](C)C[C@H](N(C)S(=O)(=O)c3ccc(Cl)cc3)[C@H]2O)[C@](C)(O)C[C@@H](C)CN[C@H](C)[C@@H](O)[C@]1(C)O` [Example B-23, 4-chloro-N-((2S,3R,4S,6R)-2-(((2R,3S,4R,5R,8R,10R,11R,12S,13S, 14R)-13-(((2R,4R,5S,6S)-5-((cyclopropylamino)methyl)-5-hydroxy-4-methoxy-4,6-dimethyltetrahydro-2H-pyran-2-yl)oxy)-2-ethyl-3,4, 10-trihydroxy-3,5,8, 10, 12,14-hexamethyl-15-oxo-1-oxa-6-azacyclopentadecan-11-yl)oxy)-3-hydroxy-6-methyltetrahydro-2H-pyran-4-yl)-N-methylbenzenesulfonamide], the figures for the IC50 in experiment [1] (Bos taurus) and in experiment [2] (Bos taurus) were 13 µM and 3 µM, respectively. In addition, the MIC in experiment [3] (setting [4]) was at most 64 µg/mL.

As for “(2R,3S,4R,5R,8R,10R,11R,12S, 13S, 14R)-2-ethyl-3,4, 10-trihydroxy-13-[(2R,4R,5S,6S)-5-hydroxy-4-methoxy-4,6-dimethyl-5-(piperidin-1-ylmethyl) oxan-2-yl]oxy-11-[(2R,3S,4R,6S)-3-hydroxy-4-[(4-methoxyphenyl) sulfamoyl-methylamino]-6-methyloxan-2-yl]oxy-3,5,8,10, 12,14-hexamethyl-15-oxo-1-oxa-6-azacyclopentadecane [Example C-27]”, the IC50 amounted to 72 µM in experiment [1] and 73 µM in experiment [2]. Further, the “MIC flag (*) for BRD pathogenic strains” value in experiment [3] (setting [5]) is recorded as “C-27* (MIC ≤64 μg/mL for at least one BRD pathogenic strain)”.

With `CCCNC[C@]1(O)[C@H](C)O[C@@H](O[C@H]2[C@H](C)[C@@H](O[C@@H]3O[C@H](C)C[C@H](N(C)S(=O)(=O)c4ccc([N+](=O)[O-])cc4)[C@H]3O)[C@](C)(O)C[C@@H](C)CN[C@H](C)[C@@H](O)[C@](C)(O)[C@@H](CC)OC(=O)[C@@H]2C)C[C@@]1(C)OC` [Example B-2, N-((2S,3R,4S,6R)-2-(((2R,3S,4R,5R,8R,10R,11R,12S,13S,14R)-2-ethyl-3,4,10-trihydroxy-13-(((2R,4R,5S,6S)-5-hydroxy-4-methoxy-4,6-dimethyl-5-((propylamino)methyl)tetrahydro-2H-pyran-2-yl)oxy)-3,5,8,10, 12,14-hexamethyl-15-oxo-1-oxa-6-azacyclopentadecan-11-yl)oxy)-3-hydroxy-6-methyltetrahydro-2H-pyran-4-yl)-N-methyl-4-nitrobenzenesulfonamide], the values for the IC50 in experiment [1] (Bos taurus) and in experiment [2] (Bos taurus) were 46 µM and 37 µM, respectively. The MIC in experiment [3] (setting [4]) was at most 64 µg/mL.

For “(2R,3S,4R,5R,8R,10R,11R,12S,13S,14R)-2-ethyl-3,4,10-trihydroxy-13-[(2R,4R,5S,6S)-5-hydroxy-4-methoxy-4,6-dimethyl-5-(propylaminomethyl) oxan-2-yl]oxy-11-[(2S,3R,4S,6R)-3-hydroxy-6-methyl-4-[methyl-[[4-(trifluoromethyl)phenyl]sulfamoyl]-amino]oxan-2-yl]oxy-3,5,6,8,10,12,14-heptamethyl-15-oxo-1-oxa-6-azacyclopentadecane [Example B-159]”, in experiment [2], the IC50 stood at 4 µM. The “MIC flag (*) for BRD pathogenic strains” value in experiment [3] (setting [6]) is “B-159* (MIC ≤64 μg/mL for at least one BRD pathogenic strain)”.

For `CC[C@H]1OC(=O)[C@H](C)[C@@H](O[C@H]2C[C@@](C)(OC)[C@](O)(CNCCc3ccc(C(F)(F)F)cc3)[C@H](C)O2)[C@H](C)[C@@H](O[C@@H]2O[C@H](C)C[C@H](N(C)S(=O)(=O)Nc3ccc(C(F)(F)F)cc3)[C@H]2O)[C@](C)(O)C[C@@H](C)CN[C@H](C)[C@@H](O)[C@]1(C)O` [Example B-79], the IC50 in experiment [1] and in experiment [2] was 7 µM in each case. The “MIC flag (*) for BRD pathogenic strains” value in experiment [3] (setting [6]) is “B79* (MIC ≤64 μg/mL for at least one BRD pathogenic strain)”.

With “N-((2S,3R,4S,6R)-2-(((2R,3S,4R,5R,8R,10R,11R,12S,13S,14R)-2-ethyl-3,4,10-trihydroxy-13-(((2R,4R,5S,6S)-5-hydroxy-4-methoxy-4,6-dimethyl-5-((propylamino)methyl)tetrahydro-2H-pyran-2-yl)oxy)-3,5,6,8,10,12,14-heptamethyl-15-oxo-1-oxa-6-azacyclopentadecan-11-yl)oxy)-3-(4-fluorophenoxy)-6-methyltetrahydro-2H-pyran-4-yl)-N, 1-dimethyl-1H-imidazole-2-sulfonamide [Example B-162]”, the IC50 was 9 µM in experiment [1] and 8 µM in experiment [2]. Also, the “MIC flag (*) for BRD pathogenic strains” value in experiment [3] (setting [6]) is given as “B-162* (MIC ≤64 μg/mL for at least one BRD pathogenic strain)”.

As to `CC[C@H]1OC(=O)[C@H](C)[C@@H](O[C@H]2C[C@@](C)(OC)[C@](O)(CSc3ccccc3)[C@H](C)O2)[C@H](C)[C@@H](O[C@@H]2O[C@H](C)C[C@H](N(C)S(=O)(=O)c3ccc(Cl)cc3)[C@H]2O)[C@](C)(O)C[C@@H](C)CN[C@H](C)[C@@H](O)[C@]1(C)O` [Example A3-1, 4-chloro-N-((2S,3R,4S,6R)-2-(((2R,3S,4R,5R,8R,10R,11R,12S,13S,14R)-2-ethyl-3,4, 10-trihydroxy-13-(((2R,4R,5S,6S)-5-hydroxy-4-methoxy-4,6-dimethyl-5-((phenylthio)methyl)tetrahydro-2H-pyran-2-yl)oxy)-3,5,8, 10, 12, 14-hexamethyl-15-oxo-1-oxa-6-azacyclopentadecan-11-yl)oxy)-3-hydroxy-6-methyltetrahydro-2H-pyran-4-yl)-N-methylbenzenesulfonamide], the IC50 was determined as 31 µM in experiment [1] (Bos taurus) and 27 µM in experiment [2] (Bos taurus). Further, the MIC in experiment [3] (BRD pathogens M. haemolytica and P. multocida, read-out: antibacterial / non-antibacterial (MIC class)) is above 64 µg/mL.

`CCCNC[C@]1(O)[C@H](C)OC(O[C@H]2[C@H](C)[C@@H](O[C@@H]3O[C@H](C)C[C@H](N(C)S(=O)(=O)c4ccc(-c5cnco5)s4)[C@H]3Oc3ccc(OC)cc3)[C@](C)(O)C[C@@H](C)CN[C@H](C)[C@@H](O)[C@](C)(O)[C@@H](CC)OC(=O)[C@@H]2C)C[C@@]1(C)OC` (stereo partly drawn) [Example B-120, N-[(2S,3R,4S,6R)-2-[[(2R,3S,4R,5R,8R,10R,11R,12S,13S, 14R)-2-ethyl-3,4,10-trihydroxy-13-[(4R,5S,6S)-5-hydroxy-4-methoxy-4,6-dimethyl-5-(propylaminomethyl)oxan-2-yl]oxy-3,5,8, 10, 12, 14-hexamethyl-15-oxo-1-oxa-6-azacyclopentadec-11-yl]oxy]-3-(4-methoxyphenoxy)-6-methyloxan-4-yl]-N-methyl-5-(1,3-oxazol-5-yl)thiophene-2-sulfonamide] had an IC50 in experiment [1] (Bos taurus) of 6 µM. Further, the MIC in experiment [3] (setting [4]) is at most 64 µg/mL.

Consider `CC[C@H]1OC(=O)[C@H](C)[C@@H](O[C@H]2C[C@@](C)(OC)[C@](O)(CNCCc3ccc(C(F)(F)F)cc3)[C@H](C)O2)[C@H](C)[C@@H](O[C@@H]2O[C@H](C)C[C@H](N(C)S(=O)(=O)c3ccc(Cl)cc3)[C@H]2O)[C@](C)(O)C[C@@H](C)CN[C@H](C)[C@@H](O)[C@]1(C)O` [Example B-31, 4-chloro-N-((2S,3R,4S,6R)-2-(((2R,3S,4R,5R,8R,10R,11R, 12S, 13S, 14R)-2-ethyl-3,4,10-trihydroxy-13-(((2R,4R,5S,6S)-5-hydroxy-4-methoxy-4,6-dimethyl-5-(((4-(trifluoromethyl)phenethyl)amino)methyl)tetrahydro-2H-pyran-2-yl)oxy)-3,5,8,10, 12,14-hexamethyl-15-oxo-1-oxa-6-azacyclopentadecan-11-yl)oxy)-3-hydroxy-6-methyltetrahydro-2H-pyran-4-yl)-N-methylbenzenesulfonamide], for which the results for the IC50 in experiment [1] (Bos taurus) and in experiment [2] (Bos taurus) were 7 µM and 4 µM, respectively. For the same compound, in experiment [3] (setting [4]), the MIC is at most 64 µg/mL.

Turning to “(2R,3S,4R,5R,8R,10R,11R, 12S, 13S, 14R)-2-ethyl-3,4, 10-trihydroxy-13-[(2R,4R,5S,6S)-5-hydroxy-4-methoxy-4,6-dimethyl-5-(piperidin-1-ylmethyl) oxan-2-yl]oxy-11-[(2R,3S,4R,6S)-3-hydroxy-6-methyl-4-[methyl-[(3-methylphenyl) sulfamoyl]-amino]oxan-2-yl]oxy-3,5,8, 10, 12,14-hexamethyl-15-oxo-1-oxa-6-azacyclopentadecane [Example C-26]”, the IC50 in experiment [1] worked out at 25 µM; in experiment [2], 16 µM. Further, the “MIC flag (*) for BRD pathogenic strains” value in experiment [3] (setting [5]) was “C-26* (MIC ≤64 μg/mL for at least one BRD pathogenic strain)”.

The record behind these values is patent US20250236616A1, “IMMUNOMODULATING AZALIDES” (Zoetis Services LLC, priority 2021, published 2025).
